Target: T1, integrin αvβ3 (Mus musculus, UniProt O54890+P43406)
T1 construct: from tissue; host or cells: aorta (atherosclerotic plaque and normal regions) of living ApoE-/- and wild-type C57BL/6J mice
T1 sequence (P43406 31-1044): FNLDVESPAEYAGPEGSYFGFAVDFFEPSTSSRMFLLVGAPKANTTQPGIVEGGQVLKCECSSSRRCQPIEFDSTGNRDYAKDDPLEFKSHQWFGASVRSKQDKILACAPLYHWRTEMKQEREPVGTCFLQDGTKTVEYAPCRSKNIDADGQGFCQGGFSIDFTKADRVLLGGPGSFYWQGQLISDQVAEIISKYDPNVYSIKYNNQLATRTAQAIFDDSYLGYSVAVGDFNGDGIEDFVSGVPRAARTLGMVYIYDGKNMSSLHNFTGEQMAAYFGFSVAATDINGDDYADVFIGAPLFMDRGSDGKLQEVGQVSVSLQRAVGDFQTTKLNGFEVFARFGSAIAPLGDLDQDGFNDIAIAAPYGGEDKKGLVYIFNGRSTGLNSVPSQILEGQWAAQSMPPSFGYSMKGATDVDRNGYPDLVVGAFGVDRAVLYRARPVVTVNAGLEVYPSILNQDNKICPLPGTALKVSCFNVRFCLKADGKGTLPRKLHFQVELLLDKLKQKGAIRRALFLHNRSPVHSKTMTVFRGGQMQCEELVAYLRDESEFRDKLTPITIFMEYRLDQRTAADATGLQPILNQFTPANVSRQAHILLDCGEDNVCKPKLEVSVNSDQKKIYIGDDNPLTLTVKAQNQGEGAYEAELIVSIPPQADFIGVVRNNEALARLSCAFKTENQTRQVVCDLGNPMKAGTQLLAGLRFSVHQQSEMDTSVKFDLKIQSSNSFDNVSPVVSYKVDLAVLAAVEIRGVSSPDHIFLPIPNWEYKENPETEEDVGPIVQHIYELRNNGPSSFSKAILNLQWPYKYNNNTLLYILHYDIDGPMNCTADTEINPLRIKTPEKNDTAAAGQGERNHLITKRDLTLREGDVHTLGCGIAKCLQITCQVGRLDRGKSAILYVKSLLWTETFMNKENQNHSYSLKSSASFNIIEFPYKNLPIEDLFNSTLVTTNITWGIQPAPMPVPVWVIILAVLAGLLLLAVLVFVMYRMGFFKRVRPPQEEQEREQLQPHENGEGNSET
T1 sequence (O54890 26-787): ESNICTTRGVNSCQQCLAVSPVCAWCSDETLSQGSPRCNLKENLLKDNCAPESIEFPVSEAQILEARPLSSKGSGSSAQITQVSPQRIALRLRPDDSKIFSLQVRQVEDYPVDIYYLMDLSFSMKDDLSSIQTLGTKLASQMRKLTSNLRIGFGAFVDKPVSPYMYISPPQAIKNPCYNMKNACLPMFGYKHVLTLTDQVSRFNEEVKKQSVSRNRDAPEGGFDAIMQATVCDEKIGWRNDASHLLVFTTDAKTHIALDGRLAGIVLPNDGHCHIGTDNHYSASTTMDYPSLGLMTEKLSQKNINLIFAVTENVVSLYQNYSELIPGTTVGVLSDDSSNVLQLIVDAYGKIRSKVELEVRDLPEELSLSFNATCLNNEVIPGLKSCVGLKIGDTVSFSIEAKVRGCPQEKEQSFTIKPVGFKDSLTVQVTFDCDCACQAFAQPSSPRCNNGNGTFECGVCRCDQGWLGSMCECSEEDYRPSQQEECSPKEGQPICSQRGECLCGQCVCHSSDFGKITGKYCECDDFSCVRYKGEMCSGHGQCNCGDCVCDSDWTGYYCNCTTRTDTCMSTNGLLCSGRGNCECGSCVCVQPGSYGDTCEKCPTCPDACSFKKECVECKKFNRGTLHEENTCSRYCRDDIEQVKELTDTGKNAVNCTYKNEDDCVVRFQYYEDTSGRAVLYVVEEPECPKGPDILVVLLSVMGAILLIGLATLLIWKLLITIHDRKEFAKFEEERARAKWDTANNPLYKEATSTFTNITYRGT
Assay: In vivo SPECT/CT imaging and ROI quantification of radiotracer uptake in aorta of atherosclerotic (ApoE-/-, high-cholesterol diet) and wild-type mice
Conditions: 30 min post-injection, RGD and RAD tracers in the same mouse on consecutive days
Procedure: All animal experiments were carried out in accordance with the approved guidelines by the Seoul National University Bundang Hospital Animal Care and Use Committee. Apolipoprotein E knock out mice (male, n = 10) and C57BL/6J mice (male, n = 3) were purchased from the Jackson Laboratory (Bar Harbor, Maine, USA) at 8–10 weeks of age. The ApoE-/- mice were maintained on a high-cholesterol diet (0.2% total cholesterol, Harlan Laboratories, Indianapolis, IN, USA) for 40 weeks. At the time of imaging experiment, the mice had substantial atherosclerotic lesion growth resembling vulnerable plaques in humans. Wild-type mice with the C57BL/6J genetic background had been maintained on a regular diet and were used for the disease controls.
We anesthetized mice with 2% isoflurane gas anesthesia. […] The analysis software HiSPECT (Version 1.0, Bioscan Inc., Poway, CA, USA) and InVivoScope (Version 1.43, Bioscan Inc., Poway, CA, USA) were used for image reconstruction and quantification, respectively. […] Manually drawn two-dimensional regions of interest (ROIs) or three-dimensional volumes of interest (VOIs) were used to determine the accumulated radioactivity in units of %ID/g (with decay corrected to the time of injection) using 37–55.5 MBq radioactivity of ^99mTc as the reference source.

- SPECT uptake in aortic arch region containing atherosclerotic plaques (in words): no specific accumulation
Structure (SMILES): [O]=[99Tc](=[O])(=[O])[O-] [^99mTc-pertechnetate]

From publication PMC4485237, “SPECT/CT Imaging of High-Risk Atherosclerotic Plaques using Integrin-Binding RGD Dimer Peptides” (Scientific Reports, 2015)
